Measured values published in PMC10423561, “Effects of the CYP3A inhibitors, voriconazole, itraconazole, and fluconazole on the pharmacokinetics of osimertinib in rats” (PeerJ, 2023).
“And” between values parts separate entries of the source, which are not always exact repeats. Equal values may be shown once. Read-outs that look alike come from different tables or passages of the source.

Columns and labels:
[1] = Pharmacokinetic study of OSIM in rats, alone or after voriconazole, itraconazole or fluconazole pretreatment (plasma concentration by HPLC-MS/MS); assay type: in vivo, Sprague-Dawley rats; set-up: Conc. (plasma): unit not given here; conditions: for Conc. (plasma): individual rats; for AUC(0-inf) / AUC(0-t) / CL/F / Cmax / Tmax / Vd/F / half-life / MRT inf: male, Sprague-Dawley, rat, plasma, po, 10 mg/kg; for Vd/F: read-out: Vz/F; for MRT inf: read-out: MRT0–inf
Experimental: A liquid chromatography with tandem mass spectrometry (HPLC-MS/MS) system coupled to a JasperTM HPLC and Triple […] and equipped with an electrospray ionization (ESI) interface source (AB Sciex, Redwood City, CA, USA) was used for the analysis. […] Waters Corp., Milford, MA, USA) maintained at 45 °C. Mobile phase A was 0.2% formic acid in water, and mobile phase B was acetonitrile. […] Carry-over was minimized with methanol-acetonitrile-isopropanol-water solution (1:1:1:1, v/v/v/v) before and after the injection procedure. […] Subsequently, all samples were vortex-mixed for 30 s and were centrifuged at 14,000 × g for 10 min. Finally, each sample was reconstituted with an aliquot of mobile phase A. The sample was transferred to a 0.8 mL 96-well plate, of which 5 μL was injected into HPLC-MS/MS system for analysis. Twenty-four adult male Sprague-Dawley rats (220 ± 20 g) with specific pathogen free were supplied by the Laboratory Animal Center of Zhejiang Provincial People's Hospital. […] The study was performed in accordance with the Animal Care and Use Committee of Zhejiang Provincial People's Hospital (number: […], and FCZ were prepared in 0.3% carboxymethyl cellulose sodium (CMC-Na). After 12 h of fasting and free water consumption, the rats were randomly separated into four groups, and the sample size was based on a similar study using as few rats as possible (n = 6): control (equivalent volume of 0.3% CMC-Na), VCZ (20 mg/kg), ICZ (20 mg/kg), and FCZ (20 mg/kg) groups. Only those responsible for treatment management researchers know this group well. Each group was housed in a single cage. The rats in the four groups were orally dosed once daily with 0.3% CMC-Na, VCZ, ICZ, or FCZ, respectively; they reached steady-state exposure after five continuous days of dosing. […] All rats received an oral gavage dose of approximately equivalent volume treatment regimens (one mL). Rats were restrained on the rat fixator on the laboratory bench. […] Experimental data were given as mean ± standard deviation (SD). The mean concentration levels of OSIM versus time profile were drawn using GraphPad Prism 9.4 (GraphPad Software, Inc., San Diego, CA, USA). […] SPSS 26.0 was used for statistical analysis (IBM, Armonk, USA). Significant differences among the groups were identified using one-way ANOVA and Tukey test. P < 0.05 was considered significant.

[2] = set-up: method as in Brown et al., 2017; conditions: with ICZ compared with OSIM administered alone; ref Brown et al., 2017; cited from earlier work
[3] = ICZ group vs control, rats, P < 0.05
[4] = OSIM 10 mg/kg oral after fluconazole 20 mg/kg oral once daily for 5 days, rats, n = 6
[5] = OSIM 10 mg/kg oral after voriconazole 20 mg/kg oral once daily for 5 days, rats, n = 6
[6] = co-administered with itraconazole vs control, rats
[7] = co-administration with VCZ vs OSIM alone, rats
[8] = co-administration with fluconazole vs control, rats
[9] = OSIM 10 mg/kg oral after itraconazole 20 mg/kg oral once daily for 5 days, rats, n = 6
[10] = OSIM 10 mg/kg oral, control (0.3% CMC-Na), rats, n = 6, mean ± SD

C=CC(=O)Nc1cc(Nc2nccc(-c3cn(C)c4ccccc34)n2)c(OC)cc1N(C)CCN(C)C [OSIM, Osimertinib]
Conc. (plasma) ([1]; Con group (OSIM alone), Time 0.25): 8.0671 and 11.9979
Conc. (plasma) ([1]; Con group (OSIM alone), Time 0.5): 12.1988 and 19.9452
Conc. (plasma) ([1]; Con group (OSIM alone), Time 1): 26.2008 and 25.1352
Conc. (plasma) ([1]; Con group (OSIM alone), Time 2): 34.4763 and 31.6327
Conc. (plasma) ([1]; Con group (OSIM alone), Time 4): 32.976 and 28.9864
Conc. (plasma) ([1]; Con group (OSIM alone), Time 5): 24.2861 and 21.3664
Conc. (plasma) ([1]; Con group (OSIM alone), Time 6): 16.055 and 19.5716 and 16.4633
Conc. (plasma) ([1]; Con group (OSIM alone), Time 8): 9.5939 and 12.9324 and 12.4752
Conc. (plasma) ([1]; Con group (OSIM alone), Time 12): 3.1238 and 5.2228 and 5.1031
Conc. (plasma) ([1]; Con group (OSIM alone), Time 24): 0.3493 and 0.667
Conc. (plasma) ([1]; Con group (OSIM alone), Time 48): 0.1948 and 0.7004
AUC0–t of OSIM enhanced by ([1]; FCZ group vs control, rats): ~1.01 fold
Cmax of OSIM enhanced by ([1]; FCZ group vs control, rats): approximately 0.53 fold
reduction of Cl/F of OSIM ([1]; FCZ group vs control, rats): 49.49%
reduction of Vz/F of OSIM ([1]; FCZ group vs control, rats): 55.89%
Conc. (plasma) ([1]; Flu group (fluconazole pretreatment), Time 0.25): 7.8097 and 15.8697
Conc. (plasma) ([1]; Flu group (fluconazole pretreatment), Time 0.5): 11.781 and 29.3217
Conc. (plasma) ([1]; Flu group (fluconazole pretreatment), Time 1): 19.1216
Conc. (plasma) ([1]; Flu group (fluconazole pretreatment), Time 2): 33.0063 and 43.3299
Conc. (plasma) ([1]; Flu group (fluconazole pretreatment), Time 3): 39.5899 and 53.0362
Conc. (plasma) ([1]; Flu group (fluconazole pretreatment), Time 4): 43.6983 and 40.9109
Conc. (plasma) ([1]; Flu group (fluconazole pretreatment), Time 5): 33.9054 and 36.7921
Conc. (plasma) ([1]; Flu group (fluconazole pretreatment), Time 6): 33.9688
Conc. (plasma) ([1]; Flu group (fluconazole pretreatment), Time 8): 18.8994 and 29.246 and 22.772
Conc. (plasma) ([1]; Flu group (fluconazole pretreatment), Time 12): 8.5799 and 18.5501 and 14.3797
Conc. (plasma) ([1]; Flu group (fluconazole pretreatment), Time 24): 1.2033 and 2.0928 and 2.1757
Conc. (plasma) ([1]; Flu group (fluconazole pretreatment), Time 48): 0.3201 and 0.2978
decrease in Vz/F of OSIM [1, 3]: 38.08%
decrease in t1/2 of OSIM [1, 3]: 25.41%
Conc. (plasma) ([1]; Itr group (itraconazole pretreatment), Time 0.25): 5.2753 and 10.1717
Conc. (plasma) ([1]; Itr group (itraconazole pretreatment), Time 0.5): 2.137 and 22.1484
Conc. (plasma) ([1]; Itr group (itraconazole pretreatment), Time 1): 14.402 and 30.439
Conc. (plasma) ([1]; Itr group (itraconazole pretreatment), Time 2): 19.1571 and 37.1482
Conc. (plasma) ([1]; Itr group (itraconazole pretreatment), Time 3): 31.5023
Conc. (plasma) ([1]; Itr group (itraconazole pretreatment), Time 4): 27.9801
Conc. (plasma) ([1]; Itr group (itraconazole pretreatment), Time 5): 22.7144 and 26.9275
Conc. (plasma) ([1]; Itr group (itraconazole pretreatment), Time 6): 27.5418 and 15.763 and 19.3207
Conc. (plasma) ([1]; Itr group (itraconazole pretreatment), Time 8): 24.0911 and 10.4766 and 13.0808
Conc. (plasma) ([1]; Itr group (itraconazole pretreatment), Time 12): 4.7714 and 7.383
Conc. (plasma) ([1]; Itr group (itraconazole pretreatment), Time 24): 1.7983 and 0.7083 and 1.0943
Conc. (plasma) ([1]; Itr group (itraconazole pretreatment), Time 48): 0.2444 and 0.2377
MRT0–inf [1, 4]: 8.32 ± 0.47 h
t1/2 [1, 4]: 5.75 ± 0.25 h
t1/2 [1, 5]: 3.82 ± 0.34 h
decrease in Cl/F of OSIM ([1]; VCZ group vs control, rats): 37.74%
decrease in Vz/F of OSIM ([1]; VCZ group vs control, rats): 64.03%
decrease in t1/2 of OSIM ([1]; VCZ group vs control, rats): 42.56%
other parameters (Cmax, Tmax, AUC, MRT, and Cl/F) compared with the control group ([1]; administration of OSIM with ICZ, rats): not significantly different
increase in AUC0–t of OSIM [1, 6]: 34.80%
increase in Cmax of OSIM [1, 6]: 13.91%
effect on t1/2 and Tmax of orally administered OSIM ([1]; co-administration with FCZ vs control, rats): did not significantly alter
increase in AUC0–t of OSIM [1, 7]: 62.56%
increase in Cmax of OSIM [1, 7]: 58.04%
increase in AUC0–t of OSIM [1, 8]: 100.98%
increase in Cmax of OSIM [1, 8]: 53.45%
AUC(0-inf) [1, 4]: 524 ± 92.4 ng·h/mL
AUC(0-t) [1, 4]: 521 ± 92.5 ng·h/mL
CL/F [1, 4]: 325 mL/min/kg
Cmax [1, 4]: 50.8 ± 8.41 ng/mL
Tmax [1, 4]: 3.17 ± 0.98 h
Vd/F [1, 4]: 162 ± 26.7 L/kg
AUC(0-inf) [1, 9]: 357 ± 99.7 ng·h/mL
AUC(0-t) [1, 9]: 350 ± 96.3 ng·h/mL
CL/F [1, 9]: 504 mL/min/kg
Cmax [1, 9]: 37.7 ± 11.5 ng/mL
Tmax [1, 9]: 3.83 ± 1.6 h
half-life [1, 9]: 4.96 ± 1.1 h
MRT inf [1, 9]: 7.51 ± 0.6 h
Vd/F [1, 9]: 228 ± 127 L/kg
AUC(0-inf) [1, 5]: 422 ± 57.9 ng·h/mL
AUC(0-t) [1, 5]: 422 ± 58.4 ng·h/mL
CL/F [1, 5]: 401 mL/min/kg
Cmax [1, 5]: 52.3 ± 10.5 ng/mL
Tmax [1, 5]: 2.83 ± 0.41 h
MRT inf [1, 5]: 6.83 ± 0.36 h
Vd/F [1, 5]: 132 ± 17.9 L/kg
AUC(0-inf) [1, 10]: 264 ± 34.4 ng·h/mL
AUC(0-t) [1, 10]: 259 ± 33.1 ng·h/mL
CL/F [1, 10]: 644 mL/min/kg
Cmax [1, 10]: 33.1 ± 3.66 ng/mL
Tmax [1, 10]: 2.33 ± 0.52 h
half-life [1, 10]: 6.65 ± 0.48 h
MRT inf [1, 10]: 7.61 ± 0.74 h
Vd/F [1, 10]: 368 ± 36.3 L/kg
Conc. (plasma) ([1]; vor group (voriconazole pretreatment), Time 0.25): 7.2019 and 17.8367
Conc. (plasma) ([1]; vor group (voriconazole pretreatment), Time 0.5): 35.8513
Conc. (plasma) ([1]; vor group (voriconazole pretreatment), Time 1): 38.47
Conc. (plasma) ([1]; vor group (voriconazole pretreatment), Time 2): 40.5898 and 38.9958
Conc. (plasma) ([1]; vor group (voriconazole pretreatment), Time 3): 68.6321 and 46.961
Conc. (plasma) ([1]; vor group (voriconazole pretreatment), Time 4): 35.6688 and 44.311
Conc. (plasma) ([1]; vor group (voriconazole pretreatment), Time 5): 28.7864 and 35.6992
Conc. (plasma) ([1]; vor group (voriconazole pretreatment), Time 6): 35.4312 and 22.8434 and 29.124
Conc. (plasma) ([1]; vor group (voriconazole pretreatment), Time 8): 20.9535 and 15.9897 and 16.5811
Conc. (plasma) ([1]; vor group (voriconazole pretreatment), Time 12): 10.8434 and 7.3402 and 9.397
Conc. (plasma) ([1]; vor group (voriconazole pretreatment), Time 24): 0.9533 and 0.6206
Conc. (plasma) ([1]; vor group (voriconazole pretreatment), Time 48): 0.0227 and 0.021
increase in AUC0–t of OSIM [2]: approximately 8%
